Results on three compounds are retold here after ChEMBL document CHEMBL5370693, “Kinases Controlling Stability of the Oncogenic MYCN Protein” (ACS Med Chem Lett, 2023).

Experiment [1] has as its target Casein kinase II subunit alpha' (Homo sapiens) (UniProt P19784). In words: Inhibition of CSNK2A2 (unknown origin) assessed as remaining activity at […] incubated for 1 hr by KINOMEscan competitive binding assay relative to control.
Experiment [2] has as its system Phosphatidylinositol 4,5-bisphosphate 3-kinase catalytic subunit alpha isoform (Homo sapiens), P42336 [I800L]. Kind of experiment: Inhibition of PIK3CA I800L mutant (unknown origin) assessed as remaining activity at […] incubated for 1 hr by KINOMEscan competitive binding assay relative to control.
Experiment [3] has as its target Phosphatidylinositol 4,5-bisphosphate 3-kinase catalytic subunit beta isoform (Homo sapiens) (UniProt P42338). In words: Inhibition of PIK3CB (unknown origin) assessed as remaining activity at […] incubated for 1 hr by KINOMEscan competitive binding assay relative to control.
The target in experiment [4] is T1, Phosphatidylinositol 4,5-bisphosphate 3-kinase catalytic subunit delta isoform (Homo sapiens) (UniProt O00329).
T1 sequence (whole entry): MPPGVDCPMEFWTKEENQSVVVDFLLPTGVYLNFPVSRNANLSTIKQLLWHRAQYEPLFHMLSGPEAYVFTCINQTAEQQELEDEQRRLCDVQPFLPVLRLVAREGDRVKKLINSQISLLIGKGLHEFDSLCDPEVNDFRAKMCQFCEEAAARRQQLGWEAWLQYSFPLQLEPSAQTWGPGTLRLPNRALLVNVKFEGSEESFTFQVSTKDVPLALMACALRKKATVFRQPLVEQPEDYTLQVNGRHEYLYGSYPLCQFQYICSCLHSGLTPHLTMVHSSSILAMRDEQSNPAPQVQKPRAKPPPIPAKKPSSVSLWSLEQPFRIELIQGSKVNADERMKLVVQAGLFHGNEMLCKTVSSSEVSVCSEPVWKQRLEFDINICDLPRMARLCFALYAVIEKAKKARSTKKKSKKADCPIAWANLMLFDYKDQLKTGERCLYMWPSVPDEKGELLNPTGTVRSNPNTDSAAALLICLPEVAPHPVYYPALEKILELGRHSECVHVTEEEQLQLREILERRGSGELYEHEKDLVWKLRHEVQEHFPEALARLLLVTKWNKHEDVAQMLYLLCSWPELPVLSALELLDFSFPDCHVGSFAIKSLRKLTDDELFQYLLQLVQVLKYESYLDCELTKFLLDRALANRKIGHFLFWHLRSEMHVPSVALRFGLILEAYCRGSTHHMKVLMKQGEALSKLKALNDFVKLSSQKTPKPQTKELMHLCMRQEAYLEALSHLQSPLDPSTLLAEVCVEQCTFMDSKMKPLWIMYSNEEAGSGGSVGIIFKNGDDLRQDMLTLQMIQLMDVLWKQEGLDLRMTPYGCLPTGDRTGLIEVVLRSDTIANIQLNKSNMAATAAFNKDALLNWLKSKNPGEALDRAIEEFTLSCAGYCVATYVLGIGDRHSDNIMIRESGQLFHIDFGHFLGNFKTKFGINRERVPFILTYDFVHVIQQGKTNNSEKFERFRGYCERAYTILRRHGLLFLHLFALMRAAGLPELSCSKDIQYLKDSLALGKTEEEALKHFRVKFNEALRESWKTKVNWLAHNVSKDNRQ
In words: Inhibition of PIK3CD (unknown origin) assessed as remaining activity at […] incubated for 1 hr by KINOMEscan competitive binding assay relative to control.

The target in experiment [5] is Phosphatidylinositol 4,5-bisphosphate 3-kinase catalytic subunit gamma isoform (Homo sapiens) (UniProt P48736). In words: Inhibition of PIK3CG (unknown origin) assessed as remaining activity at […] incubated for 1 hr by KINOMEscan competitive binding assay relative to control.
Experiment [6] deals with Casein kinase II subunit alpha' (Homo sapiens) (UniProt P19784). Kind of experiment: Inhibition of CSNK2A2 (unknown origin) assessed as remaining activity at 10 uM incubated for 1 hr by KINOMEscan competitive binding assay relative to control.
The target of experiment [7] is Phosphatidylinositol 4,5-bisphosphate 3-kinase catalytic subunit beta isoform (Homo sapiens) (UniProt P42338). Kind of experiment: Inhibition of PIK3CB (unknown origin) assessed as remaining activity at 10 uM incubated for 1 hr by KINOMEscan competitive binding assay relative to control.
Experiment [8] concerns the target Serine/threonine-protein kinase 38-like (Homo sapiens) (UniProt Q9Y2H1). Kind of experiment: Inhibition of NDR2 (unknown origin) assessed as remaining activity at 10 uM incubated for 1 hr by KINOMEscan competitive binding assay relative to control.
The target of experiment [9] is Casein kinase II subunit alpha (Homo sapiens) (UniProt P68400). Kind of experiment: Inhibition of CSNK2A1 (unknown origin) assessed as remaining activity at 5 uM incubated for 1 hr by KINOMEscan competitive binding assay relative to control.
The target in experiment [10] is Phosphatidylinositol 4,5-bisphosphate 3-kinase catalytic subunit alpha isoform (Homo sapiens) (UniProt P42336). In words: Inhibition of PIK3CA (unknown origin) assessed as remaining activity at 5 uM incubated for 1 hr by KINOMEscan competitive binding assay relative to control.
In experiment [11] the test system is Phosphatidylinositol 4,5-bisphosphate 3-kinase catalytic subunit alpha isoform (Homo sapiens), P42336 [C420R]. In words: Inhibition of PIK3CA C420R mutant (unknown origin) assessed as remaining activity at 5 uM incubated for 1 hr by KINOMEscan competitive binding assay relative to control.
In experiment [12] the target is Phosphatidylinositol 4,5-bisphosphate 3-kinase catalytic subunit beta isoform (Homo sapiens) (UniProt P42338). Kind of experiment: Inhibition of PIK3CB (unknown origin) assessed as remaining activity at 5 uM incubated for 1 hr by KINOMEscan competitive binding assay relative to control.

Structures are written as SMILES.

For `CC(C)=CCc1c2c(c3occ(-c4ccc(O)c(O)c4)c(=O)c3c1O)C=CC(C)(C)O2`, the Activity in [1] worked out at 100%; in experiment [2], 100%; in experiment [3], 92%; in [4], 97%; in [5], 93%.
Consider `NC(=O)Nc1cc(-c2cccc(F)c2)sc1C(=O)N[C@H]1CCCNC1`, for which the Activity stood at 22% in experiment [6], 87% in experiment [7] and 0% in experiment [8].
In the case of `O=c1[nH]c2ccc(Cl)cc2c(N[C@@H]2CN3CCC2CC3)c1-c1nc2ccccc2[nH]1`, the Activity in experiment [9] was 1.6%; in [10] it was 88%; in experiment [11], 80%; in [12] it was 83%.
